The target in test [1] is T1, récepteur chimère Gal-PPARα (Homo sapiens, UniProt Q07869).
T1 sequence (Q07869 167-468): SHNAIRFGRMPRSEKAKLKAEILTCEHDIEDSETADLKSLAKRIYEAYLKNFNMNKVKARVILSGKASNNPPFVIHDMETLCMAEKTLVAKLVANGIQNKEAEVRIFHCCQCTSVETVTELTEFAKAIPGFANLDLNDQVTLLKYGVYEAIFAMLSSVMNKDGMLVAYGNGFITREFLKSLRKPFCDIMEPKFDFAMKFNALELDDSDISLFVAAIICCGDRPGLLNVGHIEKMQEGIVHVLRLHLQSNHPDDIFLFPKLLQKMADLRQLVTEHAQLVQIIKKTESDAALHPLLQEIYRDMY
Put plainly: Transactivation test, same protocol with chimeric receptor Gal-PPARα. In kind it is cell-based. The conditions noted are these: Hela cells; for activation at 1 µM: 24 h, compound at 1 microM, percent of activation relative to reference agonist (Wy 14643 = 100%), read-out: % d'activation (à 1 microM) PPARα; for AC50: concentration giving 50% activation relative to reference agonist, read-out: AC50 (en nM) PPARα. The source says:
De préférence, l'activateur des récepteurs de type PPARγ est spécifique, c'est à dire qu'il présente un rapport du pourcentage d'activation des récepteurs PPARγ, au pourcentage d'activation des récepteurs PPARα (calculé par rapport à un composé de référence, le Wy 14643, activant les PPARα de 100%) supérieur ou égal à 3. De préférence, ce rapport est supérieur ou égal à 5 et plus avantageusement supérieur ou égal à 10.
(§1) La capacité des molécules à activer et/ou inhiber les récepteurs PPARγ est évaluée à partir de cellules Hela transfectées de manière stable avec le récepteur chimère Gal-PPARγ (LBD).
(§2) Des plaques 96 puits sont ensemencées à raison de 10 000 cellules /100 µl / puit dans du milieu DMEM 10% SDL puis placées 24 heures à 37°C, 7% CO2.
(§3) Pour déterminer l'activité agoniste PPARγ, les cellules sont ensuite traitées par ajout de 5 µl puit des molécules à tester à la concentration finale de 1 µM. Des cellules sont également traitées en parallèle avec un agoniste de référence, l'acide (-)-3-{4-[2-(Benzooxazol-2-yl-methyl-amino)-ethoxy]-phenyl}-2-ethoxy-propionique, 1 µM.
(§4) Après une nouvelle incubation de 24 heures à 37°C, 7% CO2, un dosage de la luciférase est effectué à l'aide du kit « Steady-Glo Luciferase Assay System » de Promega. Le comptage de la luminescence se fait sur un lecteur de microplaque Microbéta Trilux (Wallac).
(§5) L'activité agoniste du produit testé sera exprimée en pourcentage d'activation par rapport au témoin agoniste l'agoniste de référence à 1 µM.
En appliquant ce même protocole avec le récepteur chimère Gal-PPARα, on peut mesurer l'activité agoniste des composés vis à vis des récepteurs PPAR alpha et ainsi la comparer avec celui du récepteur PPARγ.
(§6) L'AC50, exprimée en nM, est déterminée comme la concentration permettant d'obtenir 50% d'activation du signal basal par rapport à l'agoniste de référence.

The target of test [2] is T2, récepteur chimère Gal-PPARγ (LBD) (Homo sapiens, UniProt P37231).
T2 construct: le récepteur chimère Gal-PPARγ (LBD); Gal (fusion partner); expressed in transfected cells; host or cells: HeLa cells, stably transfected
T2 sequence (P37231 238-503 limits assumed): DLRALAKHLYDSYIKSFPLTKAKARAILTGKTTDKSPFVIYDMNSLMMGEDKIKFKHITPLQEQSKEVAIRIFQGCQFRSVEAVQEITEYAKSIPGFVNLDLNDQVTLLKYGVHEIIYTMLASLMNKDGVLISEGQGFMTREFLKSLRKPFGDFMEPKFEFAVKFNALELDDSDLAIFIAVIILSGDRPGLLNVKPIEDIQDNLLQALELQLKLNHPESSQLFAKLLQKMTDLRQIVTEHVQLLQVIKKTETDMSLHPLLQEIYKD
The test is described as follows: Transactivation test, Hela cells stably transfected with chimeric receptor Gal-PPARγ (LBD), luciferase readout. The test is classed as cell-based. The conditions noted are these: M-HeLa, 24 h, compound at 1 microM, percent of activation relative to reference agonist at 1 µM, read-out: % d'activation (à 1 microM) PPARγ. On the procedure:
L'activité agoniste vis à vis des récepteurs PPARγ des composés selon l'invention peut être évaluée par des tests de transactivation.
as §1, §2, §3, §4, §5, §6

For orientation: AC50 means the concentration at which the activity in the assay is half-maximal.

In the case of `COC(=O)CCCCCCCCC(=O)N(C)Cc1cccc(-c2ccc(CC3SC(=O)NC3=O)cc2)c1` (centres unmarked) [Composé de l'exemple 2, 9-{[4'-(2,4-Dioxo-thiazolidin-5-ylmethyl)-biphenyl-3-ylmethyl]-methyl-carbamoyl}-nonanoatede méthyle], the activation at 1 µM in test [1] is 13.7%.
`COC(=O)c1ccc(C(=O)N(C)Cc2cccc(-c3ccc(CC4SC(=O)NC4=O)cc3)c2)cc1` (centres unmarked) [Composé de l'exemple 3, N-[4'-(2,4-Dioxo-thiazolidin-5-ylmethyl)-biphenyl-3-ylmethyl]-N-methyl-terephthalamatede méthyle]: in test [1], the activation at 1 µM came to 22.3% and the half-maximal activity concentration (AC50) was > 50000 nM.
On the same counts, the results for `CN(Cc1cccc(-c2ccc(CC3SC(=O)NC3=O)cc2)c1)C(=O)CCC1CCCC1` (centres unmarked) [Composé de l'exemple 4, 3-Cyclopentyl-N-[4'-(2,4-dioxo-thiazolidin-5-ylmethyl)-biphenyl-3-ylmethyl]-N-methyl-propionamide] are 39.8% and > 50000 nM.
With `CN(Cc1cccc(-c2ccc(CC3SC(=O)NC3=O)cc2)c1)C(=O)c1cccc2ccccc12` (centres unmarked) [Composé de l'exemple 5, N-[4'-(2,4-dioxo-thiazolidin-5-ylmethyl)-biphenyl-3-ylmethyl]-N-methyl-naphthalene-1-carboxamide], in test [1], the activation at 1 µM is 26.6% and the AC50 was > 50000 nM.
The like results for `CN(Cc1cccc(-c2ccc(CC3SC(=O)NC3=O)cc2)c1)C(=O)c1ccc2ccccc2c1` (centres unmarked) [Composé de l'exemple 6, N-[4'-(2,4-dioxo-thiazolidin-5-ylmethyl)-biphenyl-3-ylmethyl]-N-methyl-naphthalene-2-carboxamide] were, in that order, 7.9% and > 50000 nM.
As to `CN(Cc1cccc(-c2ccc(CC3SC(=O)NC3=O)cc2)c1)C(=O)COc1ccccc1` (centres unmarked) [Composé de l'exemple 7, N-[4'-(2,4-Dioxo-thiazolidin-5-ylmethyl)-biphenyl-3-ylmethyl]-N-methyl-2-phenoxy-acetamide], the activation at 1 µM in test [2] is 97.2%; in test [1], 37.8%.
The like results for `CN(Cc1cccc(-c2ccc(CC3SC(=O)NC3=O)cc2)c1)C(=O)c1cccn1C` (centres unmarked) [Composé de l'exemple 8, N-[4'-(2,4-dioxo-thiazolidin-5-ylmethyl)-biphenyl-3-ylmethyl]-N-methyl-1-Methyl-1H-pyrrole-2-carboxamide] were, in that order, 97.2% and 33.6%.
On the same counts, the results for `CN(Cc1cccc(-c2ccc(CC3SC(=O)NC3=O)cc2)c1)C(=O)C12CC3CC(CC(C3)C1)C2` (centres unmarked) [Composé de l'exemple 9, N-[4'-(2,4-dioxo-thiazolidin-5-ylmethyl)-biphenyl-3-ylmethyl]-N-methyl-adamantane-1-carboxamide] are 106% and 4.3%.
Take `CN(Cc1cccc(-c2ccc(CC3SC(=O)NC3=O)cc2)c1)C(=O)c1ccc(-c2ccccc2)cc1` (centres unmarked) [Composé de l'exemple 10, N-[4'-(2,4-dioxo-thiazolidin-5-ylmethyl)-biphenyl-3-ylmethyl]-N-methyl-biphenyl-4-carboxamide]: the values for the activation at 1 µM in test [2] and in test [1] were 183% and 13.8%, respectively. Also, in test [1], the AC50 was > 50000 nM.
The like results for `CN(Cc1cccc(-c2ccc(CC3SC(=O)NC3=O)cc2)c1)C(=O)c1cc2ccccc2s1` (centres unmarked) [Composé de l'exemple 11, N-[4'-(2,4-dioxo-thiazolidin-5-ylmethyl)-biphenyl-3-ylmethyl]-N-methyl-benzo[b]thiophene-2-carboxamide] were, in that order, 90.1%, 13.2% and > 50000 nM.
Take `CN(Cc1cccc(-c2ccc(CC3SC(=O)NC3=O)cc2)c1)C(=O)CCCCC(=O)c1ccccc1` (centres unmarked) [Composé de l'exemple 12, N-[4'-(2,4-dioxo-thiazolidin-5-ylmethyl)-biphenyl-3-ylmethyl]-N-methyl-6-oxo-6-phenyl-hexanamide]: the activation at 1 µM in test [2] was 168%. In test [1], the activation at 1 µM was determined as 12.3% and the AC50 is > 50000 nM.
The like results for `CN(Cc1cccc(-c2ccc(CC3SC(=O)NC3=O)cc2)c1)C(=O)c1ccc(N(C)C)c2ccccc12` (centres unmarked) [Composé de l'exemple 13, 4-Dimethylamino-N-[4'-(2,4-dioxo-thiazolidin-5-ylmethyl)-biphenyl-3-ylmethyl]-N-methyl-naphthalene-1-carboxamide] were, in that order, 112%, 13.4% and > 50000 nM.
With `CN(Cc1cccc(-c2ccc(CC3SC(=O)NC3=O)cc2)c1)C(=O)c1ccc(S(C)(=O)=O)cc1` (centres unmarked) [Composé de l'exemple 14, N-[4'-(2,4-Dioxo-thiazolidin-5-ylmethyl)-biphenyl-3-ylmethyl]-4-methanesulfonyl-N-methyl-benzamide], the activation at 1 µM in test [2] is 76.7%; in test [1], 19%.
Regarding `CN(Cc1cccc(-c2ccc(CC3SC(=O)NC3=O)cc2)c1)C(=O)c1ccc(C(=O)c2ccccc2)cc1` (centres unmarked) [Composé de l'exemple 15, N-[4'-(2,4-Dioxo-thiazolidin-5-ylmethyl)-biphenyl-3-ylmethyl]-N-methyl-4-(1-phenyl-methanoyl)-benzamide], the activation at 1 µM in test [2] was determined as 102%; in test [1] it was 28.8%. The AC50 in test [1] is > 50000 nM.
The like results for `COCCOCOc1ccc2cc(C(=O)N(C)Cc3cccc(-c4ccc(CC5SC(=O)NC5=O)cc4)c3)ccc2c1` (centres unmarked) [Composé de l'exemple 16, 6-(2-Methoxy-ethoxymethoxy)-N-[4'-(2,4-dioxo-thiazolidin-5-ylmethyl)-biphenyl-3-ylmethyl]-N-methyl-naphthalene-2-carboxamide] were, in that order, 93.3%, 22.9% and > 50000 nM.
On the same counts, the results for `CN(Cc1cccc(-c2ccc(CC3SC(=O)NC3=O)cc2)c1)C(=O)c1ccc2cc(O)ccc2c1` (centres unmarked) [Composé de l'exemple 17, 6-Hydroxy-N-[4'-(2,4-dioxo-thiazolidin-5-ylmethyl)-biphenyl-3-ylmethyl]-N-methyl-naphthalene-2-carboxamide] are 96.1%, 15.1% and > 50000 nM.
Consider `CSc1ccc(C(=O)N(C)Cc2cccc(-c3ccc(CC4SC(=O)NC4=O)cc3)c2)cc1` (centres unmarked) [Composé de l'exemple 18, N-[4'-(2,4-Dioxo-thiazolidin-5-ylmethyl)-biphenyl-3-ylmethyl]-N-methyl-4-methylsulfanyl-benzamide], for which the activation at 1 µM in test [2] turned out to be 90.7%. In test [1], the activation at 1 µM is 37.3% and the half-maximal activity concentration (AC50) was > 50000 nM.
The like results for `CCO[C@@H](Cc1ccc(-c2cccc(CN(C)C(=O)c3ccc(-c4ccccc4)cc3)c2)cc1)C(=O)O` [Composé de l'exemple 19, Acide (S)-3-(3'-{[(1-Biphenyl-4-yl-methanoyl)-methyl-amino]-methyl}-biphenyl-4-yl)-2-ethoxy-propionique] were, in that order, 102%, 100% and > 50000 nM.
The like results for `CCO[C@@H](Cc1ccc(-c2cccc(CN(C)C(=O)CCCCC(=O)c3ccccc3)c2)cc1)C(=O)O` [Composé de l'exemple 20, Acide (S)-2-Ethoxy-3-(3'-{[methyl-(6-oxo-6-phenyl-hexanoyl)-amino]-methyl}-biphenyl-4-yl)-propionique] were, in that order, 114%, 41.9% and > 50000 nM.
